Measurements: patent publication US20040023884A1, “Biologically active peptides from functional domains of bactericidal/permeability-increasing protein and uses thereof” (priority 1993, published 2004)
“Also recorded” adds a separate entry of the source. Ends that are not written are not given here.

What was measured:
[1] = In vitro heparin-mediated lengthening of APTT / clotting time of heparinized plasma; type: biochemical, human; conditions: for effect on the clotting time of heparinized blood (in words): FIG. 12g; for effect on heparin-mediated lengthening of APTT (in words): citrated human plasma, 25 μg/mL heparin, 0.0 to 56 μg/mL
Experimental: In vitro, the effect of BPI combination functional domain peptides was determined on heparin-mediated lengthening of activated partial […] (APTT). The APTT is lengthened by the presence of endogenous or exogenous inhibitors of thrombin formation, such as therapeutically administered heparin. Thus, agents which neutralize the anti-coagulant effects of heparin will reduce the APTT measured by the test. Citrated human plasma (200 μL) was incubated for 1 minute at 37° C. with either 15 μL of diluent (0.15 M NaCl, 0.1 M Tris-HCl, pH 7.4) or 15 μL of the diluent also containing 25 μg/mL heparin (187 units/mg). Various concentrations (from 0.0 to 56 μg/mL) of rBPI23, rBPI21Δcys, or BPI combination peptides BPI.29 (the DIII homodimer) and BPI.30 (heterodimer DII+DIII) in a volume of 15 μL were added, followed immediately by 100 μL of thrombin reagent (Catalog No. 845-4, Sigma Chemical Co., St. Louis. MO). Clotting time ([…]) was measured using a BBL Fibrometer (Becton Dickenson Microbiology Systems, Cockeysville, Md.). […] FIG. 12e illustrates the results obtained with BPI.30 on a non-log scale.

[2] = test system: LPS-induced TNF production in whole blood; test: Inhibition of LPS-induced TNF production in whole blood; type: cell-based; conditions: LPS-induced TNF production in human whole blood, E. coli 0113 LPS, 4 h at 37° C.
Experimental: LPS neutralization by BPI functional domain peptides of the invention was assayed in whole blood as follows. Freshly drawn blood from healthy human donors was collected into vacutainer tubes (ACD, Rutherford, N.J.) Aliquots of blood (170 μL) were mixed with 10 μL Ca^++-, Mg^++-free PBS containing 2.5 ng/mL E. coli 0113 LPS, and with 20 μL of varying concentrations of the BPI peptides of the invention ranging in concentration from 0.5-50 μg/mL. These mixtures were then incubated for 4 h at 37° C., and then the reaction stopped by the addition of 55 μL ice-cold Ca^++-, Mg^++-free PBS, followed by centrifugation at 500×g for 7 min. Supernatants were then assayed for TNF levels using a commercial ELISA kit (Biokine™ ELISA Test, T-cell Sciences, Cambridge. MA).

[3] = test system: Klebsiella pneumoniae; test: Radial diffusion bactericidal assay, Klebsiella pneumoniae; type: cell-based
[4] = test system: LPS-stimulated TNF production in THP-1 cells; test: LPS neutralization by TNF cellular toxicity assay (THP-1 / L929 cells); type: cell-based, human; conditions: 5 ng/mL LPS
From the text: A screening assay for LPS neutralization was developed using a tumor necrosis factor (TNF) cellular toxicity assay. A human monocytic cell line (THP-1; accession number TIB202, American Type Culture Collection, Rockville, Md.) grown in media supplemented with Vitamin D produce TNF upon stimulation with LPS in a dose-dependent fashion. Mouse fibroblasts (L929 cells; ATCC No.: CCL1) are sensitive to TNF-mediated cell killing, and this cell killing is also dose-dependent. Thus, the extent of cell killing of L929 cells provides a sensitive assay for the degree of TNF induction in THP-1 cells, which in turn is a sensitive indicator of the amount of free LPS in contact with the THP-1 cells. LPS binding and neutralization by BPI functional domain peptides or rBPI23 reduces the amount of free LPS in contact with THP-1 cells, which reduces the amount of TNF produced, which in turn reduces the amount of L929 cell killing in a standardized assay. Thus, the following assay provides a sensitive method for assessing the LPS binding and neutralization capacity of the BPI functional domain peptides of this invention.
THP-1 cells were grown in RPMI media (GIBCO, Long Island, N.Y.) supplemented with 10% FCS and Vitamin D in spinner culture for 3 days to a density of about 150,000 cells/mL. Cells were then plated in a round-bottomed 96-well culture plate at a density of 100,000 cells/well and incubated in RPMI media without Vitamin D or FCS in the presence of 5 ng/mL E. coli 01113 LPS for 6 hr at 37° C. Experimental control wells also contained varying amounts of rBPI23 or BPI functional domain peptides, in concentrations varying from about 0.1 μg/mL to about 100 μg/mL. After this incubation, the plates were centrifuged at about 600×g to pellet the cells, and 50 μL of the supernatant were added to a 96-well flat bottomed culture dish prepared in parallel with 50,000 L929 cells per well in 50 μL RPMI/10% FCS.
L929 cells were prepared by monolayer growth in RPMI/10% FCS media to a density of about 1 million cells per dish, then split 1:2 on the day before the experiment and allowed to grow overnight to about 70% confluence on the day of the experiment. Actinomycin D was added to the 70% confluent culture to a final concentration of 1 μg/mL 20 min prior to plating in 96-well plates. L929 cell plates were incubated in the presence of the THP-1 supernatant for about 16 hr (overnight) at 37° C. under standard conditions of mammalian cell growth. To each well was then added […] of a solution prepared by diluting 100 μL of phenazine methylsulfonate in 2 mL CellTitre 96™ AQueous solution (Promega, Madison, Wis.), containing 3-[(4,5-dimethyl)-thiozol-2-yl]-5-(3-carboxymethoxyphenyl)-2-(4-sulfonyl)-2H-tetrazolium (inner salt). The cultures were allowed to incubate for 2-4 hr at 37° C. and then analyzed spectrophotometrically to determine the optical absorbance at 490 nm (A490). Experimental results were evaluated relative to a semilog standard curve prepared with known amounts of TNF, varying from about 10 ng/mL to about […].

[5] = FIG. 11c, up to about 2000 pmol

KSKVGWLIQLFHKKKSKVGWLIQLFHKK-NH2 (C-terminus assumed) [BPI.29]
effect on the clotting time of heparinized blood (in words) [1]: greatest effect
effect on heparin-mediated lengthening of APTT (in words) [1]: inhibit the heparin-mediated lengthening of APTT
IC50 TNF assay [2]: 5.0 µg/mL
bactericidal activity (in words) ([3]; FIG. 10d): moderate levels of activity
IC50 (LPS-stimulated TNF production, L929 cell killing) [4]: 2 to 3 µg/mL

IKISGKWKAQKRFLK [BPI.2]
effect on the clotting time of heparinized blood (in words) [1]: less of a decrease in clotting times

KWKAQKRFLKKSKVGWLIQLFHKK-NH2 (C-terminus assumed) [BPI.30]
effect on the clotting time of heparinized blood (in words) [1]: greatest effect
effect on heparin-mediated lengthening of APTT (in words) [1]: inhibit the heparin-mediated lengthening of APTT
bactericidal activity (in words) [3, 5]: showed bactericidal activity
bactericidal activity (in words) ([3]; FIG. 10d): highest amount of bactericidal activity
IC50 (LPS-stimulated TNF production, L929 cell killing) [4]: 6 to 7 µg/mL

KSKVGWLIQLFHKK-NH2 (C-terminus assumed) [BPI.13]
IC50 TNF assay [2]: 42 µg/mL
bactericidal activity (in words) [3, 5]: showed bactericidal activity
bactericidal activity (in words) ([3]; FIG. 10d): low levels of activity
IC50 (LPS-stimulated TNF production, L929 cell killing) [4]: 20 µg/mL

NVGLKFSISNANIKISGKWKAQKRFLK [BPI.3]
effect on the clotting time of heparinized blood (in words) [1]: smaller effect

KWKAQKRFLKKWKAQKRFLK-NH2 (C-terminus assumed) [BPI.7]
effect on the clotting time of heparinized blood (in words) [1]: greatest effect; also recorded: less of a decrease in clotting times
IC50 TNF assay [2]: Not Inhibitory
bactericidal activity (in words) ([3]; FIG. 10d): low levels of activity
IC50 (LPS-stimulated TNF production, L929 cell killing) [4]: 30 µg/mL

KWKAAARFLKKWKAAARFLK [BPI.48]
IC50 (LPS-stimulated TNF production, L929 cell killing) [4]: 1 µg/mL
